Consider two compounds from patent US11225460B2, “Pyrrolidineamide derivatives and uses thereof” (SUNSHINE LAKE PHARMA CO., LTD., priority 2019, dated 2022).

Data set [1] addresses T1, Human recombinant monoamine oxidase B (Homo sapiens, UniProt P27338).
T1 construct: host or cells: Sf9 cells
T1 sequence (P27338 1-520): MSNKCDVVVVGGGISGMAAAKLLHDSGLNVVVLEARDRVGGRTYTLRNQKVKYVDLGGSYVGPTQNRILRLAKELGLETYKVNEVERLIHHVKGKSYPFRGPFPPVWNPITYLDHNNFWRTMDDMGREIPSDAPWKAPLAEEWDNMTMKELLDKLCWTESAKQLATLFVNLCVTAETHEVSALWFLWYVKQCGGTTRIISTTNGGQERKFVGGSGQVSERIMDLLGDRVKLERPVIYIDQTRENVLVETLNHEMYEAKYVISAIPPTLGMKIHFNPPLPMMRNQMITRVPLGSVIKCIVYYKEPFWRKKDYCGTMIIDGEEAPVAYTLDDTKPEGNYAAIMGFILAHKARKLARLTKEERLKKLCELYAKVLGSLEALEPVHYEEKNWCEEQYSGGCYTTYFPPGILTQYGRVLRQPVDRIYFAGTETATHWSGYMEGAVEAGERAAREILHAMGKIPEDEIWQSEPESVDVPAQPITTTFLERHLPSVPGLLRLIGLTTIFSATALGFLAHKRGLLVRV
Put plainly: Inhibitory effect on the activity of monoamine oxidase B. To be noted: human recombinant MAO-B, substrate benzylamine hydrochloride. Format: biochemical. Here is the method: Human recombinant monoamine oxidase B expressed in Sf9 cells was used in the test system. In the experiment, firstly, the recombinant monoamine oxidase B was dissolved in the pre-configured HEPES buffer (0.8% NaCl, 0.037% KCl, 0.0135% Na2HPO4.2H2O, 0.1% Glucan, 0.5% HEPES, pH=7.0) at a concentration of 0.3 μg/μL. To each well of a 384-well plate was added 10 μL of monoamine oxidase B solution, and the test compound with different concentrations (the final concentration of DMSO was 1%) (10 gradient concentrations were 10 mM, 1 mM, 100 μM, 10 μM, 1 μM, 100 nM, 10 nM, 1 nM, 0.1 nM, 0.01 nM) were added into the wells respectively. The standard reference compound was R-(−)-Deprenyl, the plate was incubated at room temperature for 15 min. Then, each well filled with 10 μL substrate solution (Benzylamine hydrochloride, 1 mM) was incubated at room temperature for 60 min. Then 20 μL of fluorescein detection reagent was added to each well, which was fully blended and incubated at room temperature for 20 minutes to produce stable fluorescence signal. The fluorescence signal was read by fluorescein labeling instrument, and the value was expressed by relative light intensity (RLU). The inhibitory rate on enzyme activity was calculated according to the experimental results, the calculated formula: Inh %=(Max−Signal)/(Max−Min)*100, wherein Max was the detected value at the maximum concentration of the sample, Min was the detected value at the minimum concentration of the sample, and Signal was the detected value at the current concentration of the sample.
The standard curve was obtained through the series concentration by experimental test to calculate the IC50.

The nature of data set [2]: Pharmacokinetic evaluation after intravenous or gavage administration in rats. Format: in vivo, SD rats. The procedure: The LC-MS/MS system comprises Agilent 1200 series vacuum degassing furnace, quaternary pumps, well-plate autosampler, thermostatted column compartment, the API4000Qtrap Triple Quadrupole Mass Spectrometer with an electrospray ionization (ESI) source. Quantitative analysis was carried out using MRM mode. The parameters for MRM transitions are in Table 2.
Analysis was carried out on waters xbridge C18 (2.1×50 mm, […] column, 0.5 μL of sample), the analytic conditions are mobile phases cosisting of water+2 mM ammonium formate+0.1% formic acid (Phase A) and methanol+2 mM ammonium formate+0.1% formic acid (Phase B). The flow rate was 0.4 mL/min. And the gradient of Mobile phase was in Table 3.
Each animal species was divided into two groups: one was administered intravenously and the other was administered intragastrically. The compounds disclosed herein were administered in form of a solution containing 5% DMSO+5% Kolliphor HS15+90% Saline. For the group of intravenous administration, the administration dose was 1 mg/kg, and vein blood samples (0.3 ml) were collected at the time points of 0.083, 0.25, 0.5, 1.0, 2.0, 4.0, 6.0, 8.0 and 24 h after drug administration, then plasma solutions were collected by centrifuging each blood sample at 3000 rpm or 4000 rpm for 10 minutes and kept at −20° C. or −70° C. For the group of intragastric administration, the administration dose was 5 mg/kg, and vein blood samples (0.3 mL) were collected at the time points of 0.25, 0.5, 1.0, 2.0, 4.0, 6.0, 8.0 and 24 h after drug administration, then plasma solutions were collected by centrifuging each blood sample at 3000 rpm or 4000 rpm for 10 minutes and kept at −20° C. or −70° C.
20 μL of plasma was blended with 120 μl, 50 ng/ml propranolol standard water solution, then the mixture was extracted with 1.0 mL methyl tert-butyl ether (MTBE), 0.7 mL of supernatant was dried by blow with nitrogen and then dissolved again with 220 μL methanol water (methanol/water (v/v)=1/1). LC-MS/MS method was used to detect the concentration of the target compounds, and […] was used to calculate the pharmacokinetic parameters.

[3] abbreviates: SD, rat, plasma, iv, i.v group, 1 mg/kg.
The mark [4] stands for this setting: SD, rat, plasma, po, i.g group, 5 mg/kg.

As a reminder, the IC50 is the midpoint of a concentration-inhibition curve. As usually defined, the AUC(0-inf) is total exposure, with the tail of the curve extrapolated. Low readings indicate less exposure, high ones more exposure. By Cmax is commonly meant the peak of the concentration-time curve. Broadly, the MRT inf is the average time that molecules of a dose stay in the body. What is called Tmax is the time from dosing to the highest level. Broadly, the AUC(0-t) is exposure summed from dosing to a finite time, without extrapolation to infinity. Read a high AUC(0-t) as more exposure. The term half-life denotes the time in which the quantity being followed falls by half. The low end stands for rapid decline, the high end for slow decline.

For the compound `NC(=O)[C@@H]1C[C@H](F)CN1Cc1ccc(OCc2cccc(F)c2)cc1` [Example 1, (2S,4S)-4-fluoro-1-(4-(3-fluorobenzyloxy)benzyl)pyrrolidine-2-formamide], the IC50 in data set [1] is 19 nM. In data set [2] (setting [3]), the AUC(0-inf) was 507 ng·h/mL, the Cmax is 690 ng/mL, the MRT inf was found to be 41.6 min and the Tmax amounted to 4.98 min. Moreover, in data set [2] (setting [4]), the AUC(0-inf) is 1400 ng·h/mL, the AUC(0-t) was found to be 1400 ng·h/mL, the highest level (Cmax) was 1000 ng/mL and the MRT inf turned out to be 64.8 min. Moreover, in data set [2] (setting [4]), the Tmax amounted to 20 min and the half-life is 33.9 min. For the same compound, in data set [2] (i.g group, 5 mg/kg), the F is reported as 55.2%. In data set [2] (i.v group, 1 mg/kg), the AUClast worked out at 505 ng·h/mL, the Cl is on record as 32.9 mL/min/kg and the T1/2 turned out to be 40.2 min.
In the case of `NC(=O)[C@@H]1C[C@H](F)CN1Cc1ccc(OCc2cccc(F)c2)cc1F` [Example 3, (2S,4S)-4-fluoro-1-(2-fluoro-4-(3-fluorobenzyloxy)benzyl)pyrrolidine-2-formamide], in data set [1], the IC50 worked out at 30 nM. Also, in data set [2] (setting [3]), the total exposure AUC(0-inf) worked out at 582 ng·h/mL, the AUC(0-t) is 582 ng·h/mL, the highest level (Cmax) was 681 ng/mL and the MRT inf came to 46.7 min. Moreover, in data set [2] (setting [3]), the Tmax is 4.98 min, the clearance was found to be 28.7 mL/min/kg and the half-life is 42.7 min. In data set [2] (setting [4]), this compound returned an AUC(0-inf) of 1550 ng·h/mL, an AUC(0-t) of 1520 ng·h/mL, a Cmax of 700 ng/mL and an MRT inf of 127 min. Also, in data set [2] (setting [4]), the Tmax was found to be 37.5 min and the half-life is 73.8 min. In addition, in data set [2] (i.g group, 5 mg/kg), the F came out at 53.3%.
